Consider one compound from US10758584B2, “Topical formulation for promoting wound healing” (Oneness Biotech Co. LTD, priority 2016, dated 2020).

This series in a line: clinical. The following applies: human, in vivo. The protocol: […]. The PA and CA extracts in the topical formulation were prepared according to the methods described herein. The topical formulation is cream-based and further comprises cetostearyl alcohol (about 1.0-10% by weight, for example, about 3.5-6.5% by weight), white petrolatum and liquid petrolatum 350 cps (about 5%-30% by weight in total, for example, about 5-15% by weight in total), methyl paraben and propyl paraben (about 0.005% to 0.2% by weight in total, for example, 0.005-0.2% by weight in total), emulsifiers such as Span® 60 and Tween® 60 (about 0.5-10% by weight in total, for example, about 0.5-5% by weight in total), and one or more solvent such as propylene glycol (about 2-20% by weight, for example, about 4-10% by weight). The extracts were formulated in a cream-based topical formulation that additionally contains liquid petrolatum, propylene glycol, cetyl stearyl alcohol, white petrolatum, Span® 60, Tween® 60, propyl paraben, methyl paraben, and water.
A total of 12 patients completed the study. Each subject received one dose of the cream formulation on Day 1 followed by the blood sampling collection, then twice per day from Day 2 to Day 13, and a further blood sampling collection was scheduled on Day 14 after the final dose. […].

The structures appear in SMILES notation.

In the case of `COc1ccc(-c2cc(=O)c3c(O)c(OC)c(OC)cc3o2)cc1` [salvigenin], the concentration at 1 day was not above 0.0124 ng/mL and the concentration at 14 day is not above 0.017 ng/mL. For the same compound, the “number of patients with detectable plasma concentrations” value (1 day) was 2. In addition, the “number of patients with detectable plasma concentrations” value (14 day) amounted to 4.
